Experimental findings from patent publication US8703797B2, “Condensed ring pyridine compounds as subtype-selective modulators of sphingosine-1-phosphate-2 (S1P2) receptors” (Allergan, Inc., priority 2009, dated 2014) are described below.

Where only a bound is given, the exact number is not on record here.

One assay deals with T1, S1P1 (Homo sapiens, UniProt P21453).
T1 construct: expressed in transfected cells
The assay can be described thus: FLIPR calcium assay, cells expressing S1P1 and a G-protein. Format: cell-based. As to the method: (§1) After removal of excess dye by washing, the cells are placed in the FLIPR TETRA instrument. Baseline fluorescence readings are taken prior to addition the compound to be tested. Agonists will trigger the receptor to interact with the G-protein, leading to an increase in intracellular calcium. The increase in intracellular calcium causes an increase in the fluorescence of the cells, due to the presence of fluo-4. This fluorescence increase is recorded by the FLIPR TETRA. After the calcium transient signal has decreased towards baseline, the standard agonist sphingosine 1-phosphate is added. If the test compound is an antagonist, an initial calcium signal will not be generated and the antagonist will prevent the generation of a calcium signal from sphingosine 1-phosphate.

For assay [1], the target named is T2, S1P2 (Homo sapiens, UniProt O95136). The assay can be described thus: FLIPR calcium assay, cells expressing S1P2 and a G-protein. It counts as cell-based. As to the method:
as §1

Another assay concerns the target T3, S1P3 (Homo sapiens, UniProt Q99500).
T3 construct: expressed in transfected cells
In words: FLIPR calcium assay, cells expressing S1P3 and a G-protein. It counts as cell-based. The protocol:
as §1

Assay [2] concerns the target T2, S1P2. The assay can be described thus: S1P2 values marked (33P S1P). It counts as binding. As to conditions: value marked (33P S1P).

T2 sequence (O95136 whole entry, species assumed): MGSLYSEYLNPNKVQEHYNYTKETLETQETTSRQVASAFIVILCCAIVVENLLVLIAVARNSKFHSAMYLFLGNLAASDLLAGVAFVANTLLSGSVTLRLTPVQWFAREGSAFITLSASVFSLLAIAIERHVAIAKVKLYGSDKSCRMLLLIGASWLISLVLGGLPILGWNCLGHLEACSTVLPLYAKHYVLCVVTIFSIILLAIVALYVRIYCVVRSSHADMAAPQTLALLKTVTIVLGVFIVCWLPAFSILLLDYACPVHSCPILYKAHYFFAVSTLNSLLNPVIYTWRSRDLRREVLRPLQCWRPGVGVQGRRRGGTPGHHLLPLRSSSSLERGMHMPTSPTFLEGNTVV
T1 sequence (P21453 whole entry, species assumed): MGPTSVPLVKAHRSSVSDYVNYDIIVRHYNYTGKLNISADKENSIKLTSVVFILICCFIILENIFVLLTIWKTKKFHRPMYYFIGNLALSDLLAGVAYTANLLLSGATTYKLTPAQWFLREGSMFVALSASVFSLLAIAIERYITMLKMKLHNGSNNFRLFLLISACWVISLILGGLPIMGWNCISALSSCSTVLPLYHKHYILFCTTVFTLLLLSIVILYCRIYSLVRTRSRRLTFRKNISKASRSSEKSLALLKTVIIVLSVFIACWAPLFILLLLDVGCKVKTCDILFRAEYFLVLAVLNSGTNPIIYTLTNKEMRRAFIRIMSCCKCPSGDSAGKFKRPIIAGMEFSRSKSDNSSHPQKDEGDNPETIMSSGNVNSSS
T3 sequence (Q99500 whole entry, species assumed): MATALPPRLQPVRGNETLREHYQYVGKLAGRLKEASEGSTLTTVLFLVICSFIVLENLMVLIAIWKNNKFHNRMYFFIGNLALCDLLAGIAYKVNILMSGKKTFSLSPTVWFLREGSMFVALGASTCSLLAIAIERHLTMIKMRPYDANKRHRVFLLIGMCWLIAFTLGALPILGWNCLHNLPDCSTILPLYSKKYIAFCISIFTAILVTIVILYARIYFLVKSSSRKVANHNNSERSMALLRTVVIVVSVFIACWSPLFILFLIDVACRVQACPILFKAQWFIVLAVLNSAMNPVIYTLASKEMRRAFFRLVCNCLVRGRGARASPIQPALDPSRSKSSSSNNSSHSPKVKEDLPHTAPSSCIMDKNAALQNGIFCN

Take `CCCc1cc(NC(=O)NCc2cc(C(C)C)c3c(n2)c(C)nn3C)cc(Cl)n1` [Example 12, 1-(2-chloro-6-propylpyridin-4-yl)-3-((7-isopropyl-1,3-dimethyl-1H-pyrazolo[4,3-b]pyridin-5-yl)methyl)urea]: the EC50 on S1P1 was above 8300 nM; on S1P2 [1], 24 nM; on S1P3, above 8300 nM; at S1P2 [2], 2.1 nM. Besides, at S1P2 [1] (antagonism versus sphingosine 1-phosphate), the “FLIPR (% Antagonism) S1P2” value is “(99) %”.

The term EC50 denotes the concentration at which the effect is half-maximal.
